Measured values from the NIST ThermoML archive (doi:10.1021/acs.jced.5b00197).
Numbers after ± are expanded uncertainties.

Assay: refractive index (other wavelength) (dimensionless); xn = mol fraction of the nth substance listed
Settings: 94.64 kPa, Liquid, Standard Abbe refractometry

CC(=O)O [acetic acid] + O
refractive index
Settings | Wavelength=404.7 nm | Wavelength=435.8 nm | Wavelength=486.1 nm | Wavelength=546.1 nm | Wavelength=587.6 nm | Wavelength=632.8 nm | Wavelength=644 nm | Wavelength=706.5 nm
293.15 K, x1 = 0.0322 | 1.35074 ± 0.001 | 1.34808 ± 0.001 | 1.34498 ± 0.001 | 1.34229 ± 0.001 | 1.34084 ± 0.001 | 1.3395 ± 0.001 | 1.33919 ± 0.001 | 1.33766 ± 0.001
293.15 K, x1 = 0.0697 | 1.35808 ± 0.001 | 1.35532 ± 0.001 | 1.35218 ± 0.001 | 1.3494 ± 0.001 | 1.34797 ± 0.001 | 1.34664 ± 0.001 | 1.34631 ± 0.001 | 1.34473 ± 0.001
293.15 K, x1 = 0.114 | 1.36535 ± 0.00097 | 1.36252 ± 0.00097 | 1.35924 ± 0.00096 | 1.35643 ± 0.00096 | 1.35495 ± 0.00096 | 1.35355 ± 0.00096 | 1.35322 ± 0.00097 | 1.35158 ± 0.00096
293.15 K, x1 = 0.167 | 1.37162 ± 0.00092 | 1.36869 ± 0.00092 | 1.36533 ± 0.00092 | 1.36247 ± 0.00092 | 1.36095 ± 0.00092 | 1.35953 ± 0.00092 | 1.35919 ± 0.00092 | 1.35756 ± 0.00092
293.15 K, x1 = 0.231 | 1.37678 ± 0.00087 | 1.3738 ± 0.00087 | 1.37034 ± 0.00087 | 1.36744 ± 0.00087 | 1.36589 ± 0.00087 | 1.36444 ± 0.00086 | 1.36411 ± 0.00087 | 1.36247 ± 0.00087
293.15 K, x1 = 0.31 | 1.38181 ± 0.0008 | 1.37874 ± 0.0008 | 1.37522 ± 0.0008 | 1.37227 ± 0.0008 | 1.37068 ± 0.0008 | 1.36921 ± 0.0008 | 1.36888 ± 0.00081 | 1.36724 ± 0.0008
293.15 K, x1 = 0.412 | 1.38536 ± 0.00072 | 1.38226 ± 0.00072 | 1.37869 ± 0.00072 | 1.37571 ± 0.00072 | 1.37412 ± 0.00072 | 1.37264 ± 0.00072 | 1.3723 ± 0.00072 | 1.37065 ± 0.00072
293.15 K, x1 = 0.545 | 1.38847 ± 0.00062 | 1.3853 ± 0.00062 | 1.38169 ± 0.00062 | 1.37868 ± 0.00062 | 1.37709 ± 0.00062 | 1.37561 ± 0.00062 | 1.37526 ± 0.00062 | 1.37359 ± 0.00062
293.15 K, x1 = 0.629 | 1.38867 ± 0.00056 | 1.3855 ± 0.00056 | 1.38192 ± 0.00056 | 1.37889 ± 0.00056 | 1.3773 ± 0.00056 | 1.37583 ± 0.00056 | 1.37548 ± 0.00056 | 1.37381 ± 0.00056
293.15 K, x1 = 0.729 | 1.38865 ± 0.0005 | 1.38547 ± 0.00049 | 1.38189 ± 0.00049 | 1.37886 ± 0.00049 | 1.37727 ± 0.00049 | 1.37581 ± 0.00049 | 1.37547 ± 0.00049 | 1.37382 ± 0.00049
293.15 K, x1 = 0.85 | 1.38695 ± 0.00043 | 1.38381 ± 0.00043 | 1.38021 ± 0.00042 | 1.37723 ± 0.00042 | 1.37565 ± 0.00042 | 1.37419 ± 0.00042 | 1.37386 ± 0.00042 | 1.37224 ± 0.00042
293.15 K, x1 = 1 | 1.38345 ± 0.00037 | 1.38034 ± 0.00037 | 1.37681 ± 0.00037 | 1.37386 ± 0.00036 | 1.3723 ± 0.00036 | 1.37087 ± 0.00036 | 1.37055 ± 0.00036 | 1.36896 ± 0.00036
298.15 K, x1 = 0.0322 | 1.34997 ± 0.001 | 1.34733 ± 0.001 | 1.34424 ± 0.001 | 1.34156 ± 0.001 | 1.34012 ± 0.001 | 1.33879 ± 0.001 | 1.33848 ± 0.001 | 1.33695 ± 0.001
298.15 K, x1 = 0.0697 | 1.35708 ± 0.001 | 1.35435 ± 0.001 | 1.35121 ± 0.001 | 1.34845 ± 0.001 | 1.347 ± 0.001 | 1.34567 ± 0.001 | 1.34535 ± 0.001 | 1.34377 ± 0.001
298.15 K, x1 = 0.114 | 1.36413 ± 0.00097 | 1.36131 ± 0.00097 | 1.35805 ± 0.00096 | 1.35525 ± 0.00096 | 1.35378 ± 0.00096 | 1.35239 ± 0.00096 | 1.35206 ± 0.00097 | 1.35044 ± 0.00096
298.15 K, x1 = 0.167 | 1.37026 ± 0.00092 | 1.36733 ± 0.00092 | 1.36401 ± 0.00092 | 1.36114 ± 0.00092 | 1.35963 ± 0.00092 | 1.35823 ± 0.00092 | 1.3579 ± 0.00092 | 1.35625 ± 0.00092
298.15 K, x1 = 0.231 | 1.37523 ± 0.00087 | 1.37226 ± 0.00087 | 1.36885 ± 0.00087 | 1.36595 ± 0.00087 | 1.36441 ± 0.00087 | 1.36298 ± 0.00087 | 1.36265 ± 0.00087 | 1.36102 ± 0.00087
298.15 K, x1 = 0.31 | 1.38012 ± 0.0008 | 1.37707 ± 0.0008 | 1.37358 ± 0.0008 | 1.37063 ± 0.0008 | 1.36906 ± 0.0008 | 1.36762 ± 0.0008 | 1.36728 ± 0.0008 | 1.36564 ± 0.0008
298.15 K, x1 = 0.412 | 1.38357 ± 0.00072 | 1.38048 ± 0.00072 | 1.37695 ± 0.00072 | 1.37398 ± 0.00072 | 1.37239 ± 0.00072 | 1.37092 ± 0.00072 | 1.37059 ± 0.00072 | 1.36894 ± 0.00072
298.15 K, x1 = 0.545 | 1.38656 ± 0.00062 | 1.38342 ± 0.00062 | 1.37983 ± 0.00062 | 1.37683 ± 0.00062 | 1.37525 ± 0.00062 | 1.37378 ± 0.00062 | 1.37344 ± 0.00062 | 1.37178 ± 0.00062
298.15 K, x1 = 0.629 | 1.38681 ± 0.00056 | 1.38367 ± 0.00056 | 1.38008 ± 0.00056 | 1.37709 ± 0.00056 | 1.37551 ± 0.00056 | 1.37404 ± 0.00056 | 1.3737 ± 0.00056 | 1.37205 ± 0.00056
298.15 K, x1 = 0.729 | 1.38668 ± 0.0005 | 1.38352 ± 0.00049 | 1.37994 ± 0.00049 | 1.37695 ± 0.00049 | 1.37536 ± 0.00049 | 1.3739 ± 0.00049 | 1.37357 ± 0.00049 | 1.37193 ± 0.00049
298.15 K, x1 = 0.85 | 1.38488 ± 0.00043 | 1.38174 ± 0.00043 | 1.37819 ± 0.00042 | 1.37522 ± 0.00042 | 1.37365 ± 0.00042 | 1.37221 ± 0.00042 | 1.37188 ± 0.00042 | 1.37027 ± 0.00042
298.15 K, x1 = 1 | 1.38126 ± 0.00037 | 1.37816 ± 0.00037 | 1.37466 ± 0.00037 | 1.37174 ± 0.00036 | 1.37018 ± 0.00036 | 1.36876 ± 0.00036 | 1.36844 ± 0.00036 | 1.36686 ± 0.00036
303.15 K, x1 = 0.0322 | 1.34916 ± 0.001 | 1.34654 ± 0.001 | 1.34343 ± 0.001 | 1.34077 ± 0.001 | 1.33932 ± 0.001 | 1.338 ± 0.001 | 1.3377 ± 0.001 | 1.3362 ± 0.001
303.15 K, x1 = 0.0697 | 1.35605 ± 0.001 | 1.35332 ± 0.001 | 1.35017 ± 0.001 | 1.34743 ± 0.001 | 1.34598 ± 0.001 | 1.34464 ± 0.001 | 1.34432 ± 0.001 | 1.34275 ± 0.001
303.15 K, x1 = 0.114 | 1.36289 ± 0.00097 | 1.36008 ± 0.00097 | 1.35684 ± 0.00096 | 1.35405 ± 0.00096 | 1.35256 ± 0.00096 | 1.35117 ± 0.00096 | 1.35085 ± 0.00097 | 1.34926 ± 0.00096
303.15 K, x1 = 0.167 | 1.36886 ± 0.00092 | 1.36596 ± 0.00092 | 1.36261 ± 0.00092 | 1.35979 ± 0.00092 | 1.35827 ± 0.00092 | 1.35686 ± 0.00092 | 1.35653 ± 0.00092 | 1.35492 ± 0.00092
303.15 K, x1 = 0.231 | 1.37369 ± 0.00087 | 1.37074 ± 0.00087 | 1.36734 ± 0.00087 | 1.36446 ± 0.00087 | 1.36293 ± 0.00087 | 1.36151 ± 0.00086 | 1.36118 ± 0.00087 | 1.35956 ± 0.00087
303.15 K, x1 = 0.31 | 1.37842 ± 0.0008 | 1.37539 ± 0.0008 | 1.37192 ± 0.0008 | 1.36899 ± 0.0008 | 1.36742 ± 0.0008 | 1.36598 ± 0.0008 | 1.36565 ± 0.00081 | 1.36402 ± 0.0008
303.15 K, x1 = 0.412 | 1.38176 ± 0.00072 | 1.37869 ± 0.00072 | 1.37516 ± 0.00072 | 1.37223 ± 0.00072 | 1.37064 ± 0.00072 | 1.36917 ± 0.00072 | 1.36884 ± 0.00072 | 1.36722 ± 0.00072
303.15 K, x1 = 0.545 | 1.38463 ± 0.00062 | 1.3815 ± 0.00062 | 1.37794 ± 0.00062 | 1.37497 ± 0.00062 | 1.37337 ± 0.00062 | 1.3719 ± 0.00062 | 1.37157 ± 0.00062 | 1.36995 ± 0.00062
303.15 K, x1 = 0.629 | 1.38481 ± 0.00056 | 1.38167 ± 0.00056 | 1.37813 ± 0.00056 | 1.37513 ± 0.00056 | 1.37355 ± 0.00056 | 1.3721 ± 0.00056 | 1.37176 ± 0.00056 | 1.37013 ± 0.00056
303.15 K, x1 = 0.729 | 1.38467 ± 0.0005 | 1.38153 ± 0.00049 | 1.37797 ± 0.00049 | 1.375 ± 0.00049 | 1.37341 ± 0.00049 | 1.37196 ± 0.00049 | 1.37163 ± 0.00049 | 1.37002 ± 0.00049
303.15 K, x1 = 0.85 | 1.38283 ± 0.00043 | 1.37972 ± 0.00043 | 1.37618 ± 0.00042 | 1.37323 ± 0.00042 | 1.37166 ± 0.00042 | 1.37023 ± 0.00042 | 1.3699 ± 0.00042 | 1.36831 ± 0.00042
303.15 K, x1 = 1 | 1.37917 ± 0.00037 | 1.37611 ± 0.00037 | 1.37261 ± 0.00037 | 1.36968 ± 0.00036 | 1.36815 ± 0.00036 | 1.36675 ± 0.00036 | 1.36643 ± 0.00036 | 1.36485 ± 0.00036
